From ChEMBL document CHEMBL3301472, “MMV Malaria Box HIV and cytotoxicity screening”

Experiments:
Format in all cases: toxicity, cell-based
[1] = MMV: MTT Cytotoxicity Assay Day 3 pi, U87-CD4-CCR5 cells, % cell death @ 5mM compound; conditions: human, u87-cd4-ccr5, 5000 µM
[2] = MMV: MTT Cytotoxicity Assay Day 3 pi, U87-CD4-CXCR4 cells, % cell death @ 5mM compound; conditions: human, u87-cd4-cxcr4, 5000 µM
[3] = MMV: MTT Cytotoxicity Assay Day 7 pi of Assay #6 (compound washed out Day 1 pi), U87-CD4-CCR5 cells, % cell death @ 5mM compound; conditions: human, u87-cd4-ccr5, 5000 µM
[4] = MMV: MTT Cytotoxicity Assay Day 7 pi of Assay #7 (compound washed out Day 1 pi), U87-CD4-CXCR4 cells, % cell death @ 5mM compound; conditions: human, u87-cd4-cxcr4, 5000 µM
[5] = MMV: MTT Cytotoxicity Assay Day 7 pi of Assay #10 (NO washout), U87-CD4-CCR5 cells, % cell death @ 5mM compound; conditions: human, u87-cd4-ccr5, 5000 µM
[6] = MMV: MTT Cytotoxicity Assay Day 7 pi of Assay #11 (NO washout), U87-CD4-CXCR4 cells, % cell death @ 5mM compound; conditions: human, u87-cd4-cxcr4, 5000 µM

| SMILES | % Cell Death [1] | % Cell Death [2] | % Cell Death [3] | % Cell Death [4] | % Cell Death [5] | % Cell Death [6] |
| --- | --- | --- | --- | --- | --- | --- |
| O=C(Nc1ccc(Cl)c(Cl)c1)Nc1ccc(Cl)c(Cl)c1 | 82 | 59 | 54 | 82 | 89 | 116 |
| c1ccc(/C2=N/c3ccccc3/N=C(/c3ccccc3)c3ccccc32)cc1 | -3 | 28 | 0 | -11 | 16 | 7 |
| COc1cc(C(=O)Nc2ccc(-c3nc4ccccc4[nH]3)cc2)cc(OC)c1OC | -27 | 29 | -4 | -7 | 29 | -49 |
| O=C(CCl)NCCOc1ccc(Cl)cc1Cl | 15 | 28 | -19 | -8 | 12 | 6 |
| CC(Oc1ccc(NC(=O)c2cccs2)cc1)C(=O)c1ccc(Cl)cc1 (centres undefined) | -10 | 1 | 40 | 60 | 2 | -5 |
| CCCCNc1nc(NC(C)(C)C)nc(NC(C)(C)C)n1 | -21 | 61 | 2 | 18 | -7 | -2 |
| Cl.c1ccc2c(NCCCCCCNc3c4c(nc5ccccc35)CCCC4)c3c(nc2c1)CCCC3 | 12 | 32 | -1 | -18 | 34 | 9 |
| COc1ccc(CNC(=O)c2cc3c(=O)n4ccccc4nc3n(CCc3ccccc3)c2=N)cc1 | 14 | 37 | -17 | -14 | 0 | 49 |
| Brc1ccc(Nc2nc3ccccc3nc2Nc2ccc(Br)cc2)cc1 | 15 | 20 | -14 | -10 | 28 | -26 |
| O=C(NCCCN1CCC(N2CCCCC2)CC1)C1=Cc2cc(Br)ccc2OC1 | 52 | 10 | 31 | -28 | 14 | -57 |
| CC(=O)c1sc(NC(=O)Nc2ccc(C)cc2C)nc1C | -1 | 45 | -30 | -18 | 31 | 20 |
| Cl.Cn1c(=O)n(C)c2cc(CNCCNc3ccnc4cc(Cl)ccc34)ccc21 | 46 | 65 | 34 | 31 | 23 | 45 |
| Cc1cc(Nc2ccc(OCc3ccccc3)cc2)nc2cc(O)ccc12 | 23 | -46 | 18 | 6 | -10 | -7 |
| O=C(Nc1ccc(-c2nc3ccccc3[nH]2)cc1)c1ccc(Cl)c(Cl)c1 | 38 | 39 | -9 | 20 | 33 | -46 |
| Cc1ccccc1OCCSc1nc2ccc(NC(=O)c3cccs3)cc2s1 | 110 | 101 | 103 | 81 | 107 | 106 |
| COc1ccc(C2C(C(=O)Nc3cccc(OC)c3)c3ccccc3C(=O)N2C2CCCCC2)cc1 (centres undefined) | -65 | 15 | 18 | 22 | -8 | 37 |
| CCOC(=O)c1cnc2ccc(Cl)cc2c1NCCCN(C)C | 17 | 26 | 3 | -14 | -6 | -22 |
| O=C(Nc1ccc(C23CC4CC(CC(c5ccccc5)(C4)C2)C3)cc1)c1cccs1 | 107 | 95 | 109 | 98 | 77 | 109 |
| CCOC(=O)c1cnc2c(C)cccc2c1Nc1ccc(C(C)=O)cc1 | 70 | 76 | 49 | 78 | 69 | 80 |
| Cc1ccc2nc(C)cc(Nc3cccc(C(F)(F)F)c3)c2c1.Cl | -13 | 38 | 15 | -9 | 72 | 44 |

| SMILES | % Cell Death [1] | % Cell Death [2] | % Cell Death [3] | % Cell Death [4] | % Cell Death [5] | % Cell Death [6] |
| --- | --- | --- | --- | --- | --- | --- |
| CCc1ccc(CNCC(O)c2ccccc2)cc1.Cl (centres undefined) | -25 | 37 | -3 | 28 | 2 | 38 |
| COc1ccc(C(O)(CCC(C)C)C(CN2CCOCC2)c2ccc(Cl)cc2)cc1.Cl (centres undefined) | 72 | 55 | 48 | 4 | 102 | 47 |
| COc1ccc(-c2cc(=O)oc3c4c(ccc23)OCN(Cc2ccc(F)cc2)C4)cc1 | 20 | 21 | 16 | -9 | 29 | -26 |
| CCOc1ccc2c(c1)CN(Cc1ccc(Cl)cc1)CO2 | 8 | 32 | 11 | -14 | 13 | 20 |
| CC(C)(C)c1ccc2c(c1)CN(Cc1ccc(Cl)cc1)CO2 | 64 | 37 | 66 | 18 | 23 | -36 |
| CCCCC(O)(c1ccc(Cl)cc1)C(CN1CCOCC1)c1ccc(Cl)cc1.Cl (centres undefined) | -6 | 36 | -10 | -16 | 17 | 41 |
| COc1ccc(OC)c(C2C3=C(CC(C)(C)CC3=O)N(c3ccc(Cl)c(Cl)c3)C3=C2C(=O)CC(C)(C)C3)c1 | 9 | 31 | 28 | 5 | -4 | 3 |
| Cc1cc(=O)oc2c1ccc1oc(C(=O)c3ccccc3)c(C)c12 | 10 | 29 | 4 | -3 | 35 | -19 |
| COc1ccc2c(c1OC)C(=O)N1c3ccccc3N=C(c3ccc(C)cc3)CC21 (centres undefined) | 87 | 72 | 17 | 1 | 78 | 102 |
| Oc1ccc(Br)cc1CN1CCN(Cc2ccc(Cl)cc2)CC1 | 27 | 69 | 12 | 29 | 46 | 44 |
| COc1ccc(CCNC(=O)c2cc(S(=O)(=O)N3CC(C)CC(C)C3)ccc2Sc2ccc(F)cc2)cc1OC (centres undefined) | 39 | 39 | -8 | 14 | 27 | 29 |
| Cc1ccc(F)cc1NC(=O)c1cc(Cl)ccc1Nc1ccccc1 | 7 | 25 | 8 | -2 | 28 | -27 |
| OC1=C2C(=Nc3ccccc3SC2c2ccc(Br)cc2)c2ccccc21 (centres undefined) | 11 | 31 | -10 | 7 | 30 | 0 |
| COc1cc(OC)cc(N2C(=O)N(Cc3ccc(C(C)(C)C)cc3)c3ccccc3S2(=O)=O)c1 | 34 | 36 | 34 | -10 | 39 | 64 |
| CCOc1c(Br)cc(C2C(C(=O)OC)=CN(C)C=C2C(=O)OC)cc1OC | 30 | 21 | -1 | 19 | 30 | 30 |
| CCCCCn1c(=N)n(CC(O)COc2cccc(C)c2)c2ccccc21.Cl (centres undefined) | 99 | 71 | 65 | 60 | 115 | 110 |
| CC1CC2=C(CC1CNCCCN(C)C)C(C)(C)CCC2 (centres undefined) | -1 | 36 | -9 | 23 | 19 | -30 |
| COc1ccccc1N1C(=N)SC(=Cc2ccc(OCc3ccccc3F)cc2)C1=O | 17 | 24 | 23 | 7 | 30 | 24 |
| CCN1CCN(c2c(C(=O)c3ccccc3)cnc3cc(OC)c(OC)cc23)CC1 | 43 | 85 | 23 | -11 | 47 | 99 |
